In ChEMBL document CHEMBL6092203, “Discovery of Novel PROTAC-Based HPK1 Degraders with High Potency and Selectivity for Cancer Immunotherapy” (J Med Chem, 2024):
The source made the active and inactive calls. The calls are words filed in the database; no cut-off is given here.

Key:
MC-38 [1] = test: Synergistic antitumor activity against mouse MC38 cells implanted in C57BL/6J mouse assessed as reduction in tumor volume at 0.1 mg/kg, po bid administered for 3 to 4 weeks in presence of 5 mg/kg anti-PD1 and measured twice a week (reference value: 1549.22 +/- 217.92 mm3); assay type: functional; details: time 3-4 weeks
[2] = Half-life in Beagle dog at 5 mg/kg, po measured upto 24 hrs by LC-MS analysis; details: in vivo
[3] = Tmax in female Sprague-Dawley rat at 30 mg/kg/day, po measured at day 1; assay type: ADME, organism-based; details: in vivo, time 1 day
[4] = Drug metabolism in monkey hepatocytes assessed as phase 2 metabolites formation at 10 uM incubated for 120 mins by UHPLC-UV/MS/MS method; assay type: ADME, cell-based, Macaca mulatta, Hepatocyte; details: rhesus monkey, 2 h
in vivo [5] = details: male, Sprague-Dawley, rat, po, 100 mg/kg
in vivo [6] = details: male, Sprague-Dawley, rat, po, 30 mg/kg
[7] = Tmax in Sprague-Dawley rat at 1 mg/kg, po measured upto 24 hrs by LC-MS analysis; assay type: ADME, organism-based; details: in vivo
[8] = Tmax in female Sprague-Dawley rat at 2 mg/kg/day, po measured at day 1; assay type: ADME, organism-based; details: in vivo, time 1 day
in vivo [9] = details: female, Sprague-Dawley, rat, po, 2 mg/kg
MC-38 [10] = test: Synergistic antitumor activity against mouse MC38 cells implanted in C57BL/6J mouse assessed as reduction in tumor volume at 1 mg/kg, po bid administered for 3 to 4 weeks in presence of 5 mg/kg anti-PD1 and measured twice a week (reference value: 1549.22 +/- 217.92 mm3); assay type: functional; details: time 3-4 weeks
[11] = Apparent permeability across apical to basolateral side in human Caco-2 cells at 10 uM incubated for 2 hrs by LC-MS/MS analysis; assay type: ADME, cell-based
[12] = Drug metabolism in dog hepatocytes assessed as phase 1 metabolites formation at 10 uM incubated for 120 mins by UHPLC-UV/MS/MS method; assay type: ADME, cell-based, Canis lupus familiaris, Hepatocyte; details: 2 h
MC-38 [13] = test: Antitumor activity against mouse MC38 cells implanted in C57BL/6J mouse assessed as reduction in tumor volume at 100 mg/kg, po QD administered for 3 to 4 weeks (reference value: 1549.22 +/- 217.92 mm3); assay type: functional; details: time 3-4 weeks
[14] = target: T1, Protein cereblon/Mitogen-activated protein kinase kinase kinase kinase 1 (Homo sapiens, UniProt Q92918+Q96SW2); test: PROTAC activity at CRBN/HPK1 in human Jurkat cells assessed as HPK1 degradation at 1 uM pretreated with MLN4924 for 4 hrs followed by compound addition and measured after 24 hrs by Western blotting analysis; assay type: cell-based
in vivo [15] = details: Sprague-Dawley, rat, po, 1 mg/kg
MC-38 [16] = test: Antitumor activity against mouse MC38 cells implanted in C57BL/6J mouse assessed as tumor weight inhibition rate at 0.1 mg/kg, po BID measured after 4 weeks; assay type: functional; design: scale not given: the % may be the effect or the level left
[17] = Tmax in female Sprague-Dawley rat at 2 mg/kg/day, po measured at day 14; assay type: ADME, organism-based; details: in vivo, time 14 day
in vivo [18] = details: male, Sprague-Dawley, rat, po, 100 mg/kg; remark: listed apart in the source
[19] = Metabolic stability in mouse liver microsomes assessed as intrinsic clearance at 1 uM incubated for 45 mins by LC-MS/MS method; assay type: ADME, Microsome; details: read-out: CLH
[20] = target: T1, Protein cereblon/Mitogen-activated protein kinase kinase kinase kinase 1; test: PROTAC activity at CRBN/HPK1 in human Jurkat cells assessed as HPK1 degradation measured after 24 hrs by Western blotting analysis; assay type: cell-based; details: dose 1-2000 nM
[21] = Toxicity in C57BL/6J mouse assessed as change in body weight at 0.1 to 1 mg/kg, po bid measured after 28 days; assay type: organism-based; details: in vivo, 672 h, dose 0.1-1 mg/kg, time 28 day
in vivo [22] = details: male, Sprague-Dawley, rat, po, 2 mg/kg
in vivo [23] = details: female, Sprague-Dawley, rat, po, 2 mg/kg; remark: listed apart in the source
[24] = target: T1, Protein cereblon/Mitogen-activated protein kinase kinase kinase kinase 1; test: PROTAC activity at CRBN/HPK1 in human Jurkat cells assessed as HPK1 degradation at 1 uM measured after 24 hrs by Western blotting analysis; assay type: cell-based
in vivo [25] = details: female, Sprague-Dawley, rat, po, 100 mg/kg
[26] = Tmax in Beagle dog at 5 mg/kg, po measured upto 24 hrs by LC-MS analysis; assay type: ADME, organism-based, Canis lupus familiaris; details: in vivo
[27] = Tmax in female Sprague-Dawley rat at 100 mg/kg/day, po measured at day 14; assay type: ADME, organism-based; details: in vivo, time 14 day
[28] = Drug absorption in mouse at 10 to 100 mg/kg, po; assay type: ADME, organism-based; details: in vivo, dose 10-100 mg/kg
Cytochrome P450 2C19 = Cytochrome P450 2C19 (Homo sapiens, UniProt P33261); test: Inhibition of CYP2C19 in human liver microsomes using S-mephenytoin as substrate in presence of NADPH; assay type: ADME, Microsome
[29] = Clearance in C57BL/6J mouse at 2 mg/kg, iv measured upto 24 hrs by LC-MS analysis; details: in vivo
[30] = Clearance in rat relative to hepatic blood flow; details: in vivo
in vivo [31] = details: female, Sprague-Dawley, rat, po, 2 mg/kg; remark: listed apart in the source
[32] = target: T1, Protein cereblon/Mitogen-activated protein kinase kinase kinase kinase 1; test: PROTAC activity at CRBN/HPK1 in human Jurkat cells assessed as HPK1 degradation at 0.01 uM measured after 24 hrs by Western blotting analysis; assay type: cell-based
[33] = Plasma protein binding in dog at 10 uM incubated for 6 hrs by equilibrium dialysis based LC-MS/MS method; assay type: ADME, cell-free, Canis lupus familiaris; details: read-out: PPB (converted)
[34] = Drug metabolism in rat hepatocytes assessed as phase 2 metabolites formation at 10 uM incubated for 120 mins by UHPLC-UV/MS/MS method; assay type: ADME, cell-based, Hepatocyte; details: 2 h
[35] = Metabolic stability in rat liver microsomes assessed as intrinsic clearance at 1 uM incubated for 45 mins by LC-MS/MS method; assay type: ADME, Microsome; details: read-out: CLH
MC-38 [36] = test: Antitumor activity against mouse MC38 cells implanted in C57BL/6J mouse assessed as reduction in tumor weight at 100 mg/kg, po QD administered for 3 to 4 weeks (reference value: 1.79 +/- 0.24 g); assay type: functional; details: time 3-4 weeks
in vivo [37] = details: male, Sprague-Dawley, rat, po, 100 mg/kg; remark: listed apart in the source
Jurkat = test: Effect on p-SLP76 at Y145 residue protein expression in human Jurkat cells at 1 to 2000 nM incubated for 24 hrs by Western blotting analysis; assay type: functional, cell-based; details: dose 1-2000 nM
MC-38 [38] = test: Synergistic antitumor activity against mouse MC38 cells implanted in C57BL/6J mouse assessed as tumor growth inhibition at 1 mg/kg, po bid measured after 4 weeks in presence of 5 mg/kg anti-PD1 and measured twice a week; assay type: functional; details: MC-38, 672 h, read-out: TGI
[39] = AUC(0 to 24 hrs) in female Sprague-Dawley rat at 30 mg/kg/day, po measured at day 1; assay type: ADME, organism-based; details: in vivo, time 1 day
in vitro = details: rhesus monkey, hepatocytes

T1 sequence (Q92918 whole entry, looked up): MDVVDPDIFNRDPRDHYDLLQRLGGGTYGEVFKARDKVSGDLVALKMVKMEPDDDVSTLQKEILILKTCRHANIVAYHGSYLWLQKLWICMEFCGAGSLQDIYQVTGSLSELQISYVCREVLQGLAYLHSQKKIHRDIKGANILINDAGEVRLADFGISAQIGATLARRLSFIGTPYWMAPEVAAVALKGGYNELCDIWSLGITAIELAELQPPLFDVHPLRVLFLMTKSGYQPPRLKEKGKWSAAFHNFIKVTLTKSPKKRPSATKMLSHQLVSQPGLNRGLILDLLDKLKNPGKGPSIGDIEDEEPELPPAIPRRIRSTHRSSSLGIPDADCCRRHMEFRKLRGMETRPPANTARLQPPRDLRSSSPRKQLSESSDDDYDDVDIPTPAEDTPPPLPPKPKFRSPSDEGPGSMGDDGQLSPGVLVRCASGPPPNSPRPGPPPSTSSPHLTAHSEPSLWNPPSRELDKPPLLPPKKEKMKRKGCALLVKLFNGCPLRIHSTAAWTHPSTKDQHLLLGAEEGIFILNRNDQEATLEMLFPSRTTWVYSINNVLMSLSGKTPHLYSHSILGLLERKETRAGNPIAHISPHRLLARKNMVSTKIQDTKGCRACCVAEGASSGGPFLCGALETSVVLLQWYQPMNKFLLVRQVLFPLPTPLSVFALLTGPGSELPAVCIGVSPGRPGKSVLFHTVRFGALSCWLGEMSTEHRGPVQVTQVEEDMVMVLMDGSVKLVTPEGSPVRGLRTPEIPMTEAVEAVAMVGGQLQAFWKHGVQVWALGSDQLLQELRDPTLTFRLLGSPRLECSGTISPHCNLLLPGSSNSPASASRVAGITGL
T1 sequence (Q96SW2 whole entry, looked up): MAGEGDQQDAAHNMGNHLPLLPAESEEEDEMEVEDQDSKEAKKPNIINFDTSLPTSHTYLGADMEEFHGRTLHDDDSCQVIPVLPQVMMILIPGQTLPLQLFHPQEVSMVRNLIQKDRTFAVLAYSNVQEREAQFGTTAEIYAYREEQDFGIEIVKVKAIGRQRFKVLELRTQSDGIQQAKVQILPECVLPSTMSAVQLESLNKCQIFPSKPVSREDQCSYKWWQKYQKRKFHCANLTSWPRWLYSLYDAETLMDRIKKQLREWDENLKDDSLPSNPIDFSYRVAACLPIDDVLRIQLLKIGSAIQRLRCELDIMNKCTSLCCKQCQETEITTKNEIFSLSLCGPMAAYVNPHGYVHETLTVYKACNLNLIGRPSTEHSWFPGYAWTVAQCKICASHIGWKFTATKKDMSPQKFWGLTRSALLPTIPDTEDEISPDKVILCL
Sequence of Cytochrome P450 2C19 (P33261 whole entry): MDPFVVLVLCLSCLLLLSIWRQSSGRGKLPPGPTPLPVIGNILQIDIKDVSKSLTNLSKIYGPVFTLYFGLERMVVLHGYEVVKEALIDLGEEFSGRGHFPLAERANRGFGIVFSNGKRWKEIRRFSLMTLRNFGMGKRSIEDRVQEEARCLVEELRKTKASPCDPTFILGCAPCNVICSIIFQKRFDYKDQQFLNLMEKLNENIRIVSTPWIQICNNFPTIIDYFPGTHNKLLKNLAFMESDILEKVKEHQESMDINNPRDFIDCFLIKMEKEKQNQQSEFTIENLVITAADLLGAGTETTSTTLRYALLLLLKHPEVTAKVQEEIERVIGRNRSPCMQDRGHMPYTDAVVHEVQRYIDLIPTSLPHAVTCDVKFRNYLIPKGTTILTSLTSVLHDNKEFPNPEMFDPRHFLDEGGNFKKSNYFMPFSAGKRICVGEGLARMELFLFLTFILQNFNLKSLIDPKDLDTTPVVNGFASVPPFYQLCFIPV

O=C1CCN(c2cc(C(=O)N3CCC(CC4CCN(c5ccc(-c6cnc7[nH]cc(-c8cnn(CC(F)(F)F)c8)c7n6)cn5)CC4)CC3)ccc2Cl)C(=O)N1
Activity (MC-38 [1]): 934.84 mm3
half-life at 24 h [2]: 4.23 h
Tmax [3]: 8 h
Drug metabolism [4]: metabolite_detected
AUC at 336 h (in vivo [5]): 151000 ng·h/mL
Cmax at 336 h (in vivo [6]): 3200 ng/mL
Tmax [7]: 3.17 h
Tmax [8]: 6 h
Cmax at 24 h (in vivo [9]): 63.9 ng/mL
Activity (MC-38 [10]): 338.13 mm3
Papp A→B at 2 h, 10 µM [11]: 0.16 ×10⁻⁶ cm/s
Drug metabolism [12]: metabolite_detected
Activity (MC-38 [13]): 667.6 mm3
Activity [14]: inactive
bioavailability at 24 h (in vivo [15]): 19.2%
Activity (MC-38 [16]): 21.84%
Tmax [17]: 6 h
Cmax at 336 h (in vivo [18]): 11100 ng/mL
microsomal CLint at 1 µM [19]: 13.4 µL/min/mg
Activity [20]: Dose-dependent-effect
Activity [21]: Non-toxic
Cmax at 24 h (in vivo [22]): 84 ng/mL
Cmax at 336 h (in vivo [23]): 140 ng/mL
Activity [24]: Active
AUC at 336 h (in vivo [25]): 121000 ng·h/mL
Tmax [26]: 2.67 h
Tmax [27]: 8.67 h
Drug absorption [28]: Active
IC50 (Cytochrome P450 2C19): > 10 µM
clearance at 24 h [29]: 6 mL/min/kg
clearance [30]: 16.6 mL/min/kg
AUC at 336 h (in vivo [31]): 645 ng·h/mL
Activity [32]: Active
fraction unbound at 6 h, 10 µM [33]: 0.0004
Drug metabolism [34]: metabolite_detected
microsomal CLint at 1 µM [35]: 5.62 µL/min/mg
Activity (MC-38 [36]): 0.92 g
Cmax at 24 h (in vivo [37]): 8620 ng/mL
Activity (Jurkat): inactive
inhibition in vivo at 1 mg/kg (MC-38 [38]): 78.2%
AUC(0-t) at 24 h [39]: 51300 ng·h/mL
half-life at 1.5 h, 1 µM (in vitro): 1.3 h
